Columns and labels:
Type in all cases: cell-based
[1] = test system: bacteria/candida biofilm (samples from Example 1); experiment: Prevention of biofilm formation, MBIC by crystal violet assay; conditions: 48 hours at 37° C.; averaged results; unit not given
Description: For the prevention of biofilm formation, desired concentrations of metals (loid) and/or PBCs were added to 96 wells, with 1.0×10^6 CFU/ml bacteria/candida added to each well. The plates were then incubated for 48 hours at 37° C. in a microplate shaker incubator at 150 rpm. Afterward, the planktonic cells and spent medium were discarded, and the adhered biomass was rinsed twice with distilled water. Biofilm biomass and minimum biofilm inhibitory concentration (MBIC) were determined using the crystal violet assay. The well with no bacterial biofilm and an OD600 absorption of zero was considered the MBIC. Results from at least three separate biological replicates were averaged.
In the crystal violet assay, the microplates or Calgary biofilm device were rinsed twice with 200 μl of 0.9% saline, then stained with 200 μl of a 0.1% crystal violet solution for 30minutes. Following staining, the microplates and pegs were washed three times with 200 μl of ddH2O to remove excess dye. Biofilm quantification was performed by sonication using a 250HT™ ultrasonic cleaner (VWR International) set at 60 Hz for 10 minutes into 200 μl of 70% ethanol, and absorbance was read at 600 nm using 70% ethanol as the blank.

[2] = test system: bacteria/fungi samples from Example 1; experiment: Planktonic susceptibility, MIC and MBC in 96-well microtiter plates; conditions: averaged results
Description: Planktonic Susceptibility. Testing of planktonic susceptibility was conducted using MIC and MBC assessments on bacterial strains using 96-well microtiter plates. To prepare the wells for bacteria, serial dilutions of the antibacterial agents were Carried out along the rows of two microtiter plates. The antibacterials were 2-fold diluted with Mueller-Hinton broth (MHB) in each column, reaching a volume of 75 μL. The 1.0 McFarland standard was diluted 15-fold in MHB, and 75 μL of inoculum was added to the wells treated with antibacterials, resulting in a total volume of 150 μL. The microtiter plates were covered, then shake-incubated overnight at 150 rpm and 37° C. MIC was determined based on visible bacterial growth. In cases of Antibacterial opacity or ambiguous results, streaking of well cultures on Mueller-Hinton agar (MHA), overnight incubation, and subsequent comparison to controls were performed. MBC was determined by transferring 3 u L of culture from all MIC microtiter plate wells to 147 μL of MHB in fresh plates. These plates were shake-incubated overnight at 150 rpm and 37° C., and bacterial growth was visually inspected. Combination Antimicrobial Efficacy Testing. This checkerboard (96-well microtiter plates) included one column just media without bacteria/fungi and MBAs/PBCs (as a negative control), and one column without MBA/PBCs, with media, and bacteria/fungi (as a growth and positive controls control), MBAs and/or PBCs were diluted ½ across the rows (19, 20). For each analysis, the same MIC and MBC/MFC steps indicated above were conducted for surveying the bacteriostatic, bactericidal, and reading synergism effects of MBAs with PBCs combinations.
Samples from Example 1 were tested using combinations of additives as well as additives on their own for measuring bacteriostatic effects, bactericidal effects and biofilm inhibition properties.
Method of bacteriostatic effects, bactericidal effects explained in example 1 using MIC and MBC methods, respectively.

[3] = test system: 11 different gram-positive and gram-negative bacteria as well as 7 different fungi, in total 18 microbes; experiment: Combination antimicrobial % efficacy in comparison to silver (MIC, MBC/MFC, MBIC averaged); conditions: molar ratios Zinc 1:Carvacrol 3:Resveratrol 1:THC 0.1:CBD 0.1, averaged over all microbes and MIC, minimum of three biological repeats
Source text: Samples of 11 different gram-positive and gram-negative bacteria as well as 7 different fungi, in total 18 microbes included Pseudomonas aeruginosa ATCC 27853, Pseudomonas aeruginosa PAO1, Klebsiella pneumoniae ATCC 11296, Staphylococcus aureus ATCC 25923, Methicillin resistant S. aureus (MRSA) ATCC 33591, Escherichia coli ATCC 25922,Enterococcus faecium ATCC 19434, Staphylococcus epidermidis ATCC 12228, Enterococcus faecalis ATCC 29212, Proteus mirabilisATCC 35659, Acinetobacter baumannii CDC strain AR Bank #0033, Candida albicans ATCC 90028, Candida glabrata ATCC 2001, Candida parasilosis ATCC 22019, Candida krusei ATCC 14243, Candida tropicalis ATCC 13803, Candida auris ATCC MYA-5002, Aspergillus fumigatusATCC 16404 were used.
Metal (loid)-based antimicrobials (MBAs) including, silver nitrate (AgNO3, Sigma-Aldrich, St Louis, MO, USA Lot #M3259), potassium tellurite (K2TeO3, Sigma-Aldrich, St Louis, MO, USA, Cat #P2358-12C), hydrogen tetrachloroaurate (III) trihydrate (AuCl4.3H2O, Alfa Acsar Tweksbury, MA, USA, Lot #U17G046), zinc oxide nanoparticles, <100 nm (Sigma Aldrich), zinc sulfate (ZnSO4·1H2O), and zinc sulfate (ZnSO4.7H2O) were received from Fisher Scientific (Fair Lawn, NJ, USA, Lot #723689). […]
Planktonic Susceptibility. […] MIC was determined based on visible bacterial growth. […]

microbes = experiment: Evaluation of zinc sources for antimicrobial properties; conditions: comparison of zinc sources

Compound: C[N+](C)(C)CC(=O)O [Betaine (0.1%), Betaine]
- Biofilm Inhibition (MBIC) [1]: 1
- Bactericidal (MBC) ([2]; unit inferred, unit assumed): 1 µg/mL
- Bacteriostatic (MIC) ([2]; unit inferred, unit assumed): 1 µg/mL

Compound: Cc1ccc(C(C)C)cc1O [Carvacrol, 5-Isopropyl-2-methylphenol]
- Total antimicrobial efficacy percent over silver alone, including Antibacterial and antibiofilm efficacy (%) [3]: 1.3%

Compound: OO [H2O2 (1.5%), hydrogen peroxide]
- Biofilm Inhibition (MBIC) [1]: 0.5
- Bactericidal (MBC) ([2]; unit inferred, unit assumed): 0.5 µg/mL
- Bacteriostatic (MIC) ([2]; unit inferred, unit assumed): 0.5 µg/mL

Compound: OO [H2O2 (3%), hydrogen peroxide]
- Biofilm Inhibition (MBIC) [1]: 0.5
- Bactericidal (MBC) ([2]; unit inferred, unit assumed): 0.5 µg/mL
- Bacteriostatic (MIC) ([2]; unit inferred, unit assumed): 0.25 µg/mL

Compound: O.O.O.O.O.O.O.O=S(=O)([O-])[O-].[Zn+2] [zinc sulfate heptahydrate]
- Antimicrobial effects of zinc source (in words) (microbes): comparable to zinc sulfate monohydrate

Compound: benzalkonium chloride [Liquid BZK (0.1%)]
- Biofilm Inhibition (MBIC) [1]: (0.25-0.5)
- Bacteriostatic (MIC) ([2]; unit inferred, unit assumed): 0.25 µg/mL
- Bactericidal (MBC) ([2]; unit not given): (0.25-0.5)

Reference: patent US20250345363A1, “ANTIMICROBIAL AND ANTIBIOFILM COMPOSITIONS AND USES THEREOF” (MHCombiotic Inc., priority 2024, published 2025)
